# Source: paper PMC6272295, “In Vitro Neuroprotective Activities of Compounds from Angelica shikokiana Makino” (Molecules, 2015)
# Like-named read-outs stand apart in the source and are kept apart here.
# Columns and labels:
# Aβ25-35 = molecular target: T1, Aβ25-35 (Homo sapiens, UniProt P05067); experiment: Thioflavin T assay of Aβ25-35 aggregation; type: biochemical; settings: for effect on Th-T fluorescence (in words): 25-100 µM; for Decrease of ThT Fluorescence: summary Table 4; for Decrease of ThT Fluorescence: key: +: Weak activity; ++: Strong activity
# T1 construct: Aβ25-35 (25 µM) freshly prepared in PBS; purchased Sigma (St. Louis, MO, USA)
# Method: Thioflavin T (ThT), abenzothiazole salt, is used to quantify misfolded protein aggregates and amyloid peptides. ThT is a non-fluorescent dye which, when it binds to amyloid rich aggregates, produces a fluorescent signal proportional to the quantity of amyloid aggregation. Aβ25-35 (25 µM) freshly prepared in PBS (50 mM, pH = 7.4) was incubated at 37 °C with or without different concentrations (100, 50, 25 µM) of isolated compounds at 37 °C and shaken at 300 rpm for 3 h. One hundred µL of each incubated sample was transferred to a 96-well plate, and five µM ThT was added. The ThT fluorescence was measured over 180 min at 10-min intervals at emission λ at 485 nm; and excitation λ at 442 nm using FlexStation 3 Microplate Reader (Molecular Devices, LLC, Sunnyvale, CA, USA), and data were managed by SoftMax Pro® 5.4.1 software. The samples were constantly shaken every 60 sec during the incubation. 1% DMSO and different concentrations of ECCG were taken as negative and positive controls, respectively. The area under the curve (AUC) was taken as indicative of fluorescence intensity. Fluorescence of samples and ThT without Aβ25-35 (sample blank) was detected and subtracted from the final AUC to prevent any interference.
# [1] = Scavenging of hydroxyl radical, 2-deoxyribose degradation assay; for Hydroxyl Radical Scavenging (grade): key: +: Weak activity; ++: Strong activity
# Method: The inhibitory effect of bioactive compounds on deoxyribose degradation was determined by measuring the competition between deoxyribose and bioactive compounds for the hydroxyl radicals (^.OH) generated from the Fe^3+/ascorbate/EDTA/H2O2 system (referred to non-site-specific assay; the major activity measured is ^.OH scavenging) or an Fe^3+/ascorbate/H2O2 system (referred to as a site-specific assay; major activity measured is metal chelation). Both assays depend on the formation of a highly reactive hydroxyl radical, OH, by the interaction of iron ions with H2O2 through Fenton’s reaction. […] This assay was performed as previously described. Different concentrations of tested compounds were dissolved in 400 µL phosphate buffer (0.2 M, pH 7.4). Then, 50 µL of deoxyribose (60 mM), 50 µL of Na2EDTA (2 mM), 50 µL of FeCl3 (3.2 mM), 50 µL of H2O2 (60 mM) and 50 µL of ascorbic acid (2 mM) were added, and the total volume of the reaction mixture was adjusted to 1 mL with buffer. After water-bath incubation at 50 °C for 25 min, the reaction was terminated by 250 µL of trichloroacetic acid (10%, w/w). […] For site-specific hydroxyl-radical-scavenging activity, the reaction mixture was similar to the above method, except that EDTA was replaced by an equivalent volume of buffer.
# IC50 values of isolated compounds in AChEI and scavenging of hydroxyl radical assays were calculated using Probit Analysis (SPSS Version 16.0 for Windows, SPSS Inc., Chicago, IL, USA) for five different concentrations in three independent experiments. Cell viability was expressed as a percentage of MTT reduction, assuming that the viability of cells treated with 1% DMSO as a negative control was 100%. […] All values are the mean ± SD of three independent experiments. Data were analyzed for statistical significance using one-way ANOVA, followed by Dunnet’s test as a post-hoc test with GraphPad Prism 5.0 software for Windows (Inc., San Diego, CA, USA).
# [2] = Fe3+/ascorbate/EDTA/H2O2 system, read-out: IC50 hydroxyl radical scavenging, Non Site-Specific
# [3] = Fe3+/ascorbate/H2O2 system without EDTA, read-out: IC50 hydroxyl radical scavenging, Site-Specific
# [4] = summary Table 4 (values of the non site-specific assay), read-out: Hydroxyl Radical Scavenging/IC50
SMILES,effect on Th-T fluorescence (in words) (Aβ25-35),Decrease of ThT Fluorescence (Aβ25-35),"% Inhibition of deoxyribose degradation, Non Site-Specific ([1]; at 300 µM (maximum solubility in phosphate buffer))",Hydroxyl Radical Scavenging (grade) ([1]; summary Table 4),"IC50 [1, 2]","IC50 [1, 3]","IC50 [1, 4]"
"CC(=O)OC1c2c(ccc3ccc(=O)oc23)OC(C)(C)C1OC(=O)C(C)(O)C(C)O (centres unmarked) [Hyuganin E (6), hyuganin E]",decreased Th-T fluorescence in a dose-dependent manner,++,37.5 ± 3.5%,+,,,
"O=c1c(O)c(-c2ccc(O)cc2)oc2cc(O)cc(O)c12 [Kaempferol (8), kaempferol]",weak activity,+,,,720 ± 7.9 µM,901 ± 17.9 µM,720 ± 7.9 µM
"O=c1c(OC2OC(CO)C(O)C(O)C2O)c(-c2ccc(O)cc2)oc2cc(O)cc(O)c12 (centres unmarked) [Kaempferol-3-O-glucoside (13), kaempferol-3-O-glucoside]",weak activity,+,,,1150 ± 6.7 µM,1300 ± 24.3 µM,1150 ± 6.7 µM
